Measurements: US20170190671A1, “BIS(ARYL)CATECHOL DERIVATIVES AS HERBICIDES” (E I DU PONT DE NEMOURS AND COMPANY, priority 2014, published 2017)

Tests used:
Conditions in all cases: scale 0 to 100
[1] = tested on: wild oat (Avenafatua); experiment: Test D postemergence; type: in vivo, Avena fatua
Text: (§1) Seeds of plant species selected from bluegrass (annual bluegrass, Poa annua), blackgrass (Alopecurus myosuroides), canarygrass (Phalaris minor), chickweed (common chickweed, Stellaria media), cutleaf geranium (Geranium dissectum), galium (catchweed bedstraw, Galium aparine), downy bromegrass (Bromus tectorum), field poppy (Papaver rhoeas), field violet (Viola arvensis), green foxtail (Setaria viridis), deadnettle (henbit deadnettle, Lamium amplexicaule), Italian ryegrass (Lolium multiflorum), kochia (Kochia scoparia), lambsquarters (Chenopodium album), oilseed rape (Brassica napus), pigweed (Amaranthus retroflexus), chamomile (scentless chamomile, Matricaria inodora), Russian thistle (Salsola kali), speedwell (bird's-eye speedwell, Veronica persica), spring barley (Hordeum vulgare), spring wheat (Triticum aestivum), wild buckwheat (Polygonum convolvulus), wild mustard (Sinapis arvensis), wild oat (Avenafatua), wild radish (Raphanus raphanistrum), windgrass (Apera spica-venti), winter barley (Hordeum vulgare), and winter wheat (Triticum aestivum) were planted into a silt loam soil and treated preemergence with test chemicals formulated in a non-phytotoxic solvent mixture which included a surfactant.
(§2) At the same time, these species were planted in pots containing Redi-Earth® planting medium (Scotts Company, 14111 Scottslawn Road, Marysville, Ohio 43041) comprising spaghnum peat moss, vermiculite, wetting agent and starter nutrients and treated with postemergence applications of the test chemicals formulated in the same manner. Plants ranged in height from 2 to 18 cm (1- to 4-leaf stage). Treated plants and controls were maintained in a controlled growth environment for 14 to 21 days after which time all species were compared to controls and visually evaluated. Plant response ratings, summarized in Table D, are based on a scale of 0 to 100 where 0 is no effect and 100 is complete control. A dash (-) response means no test result.

[2] = tested on: canarygrass (Phalaris minor); experiment: Test D preemergence; type: in vivo
In short: (§3)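 Preemergent and postemergent sprays of solvent/surfactant-formulated compound; visual rating 0 (none) to 100 (complete control) after 14–21 days versus controls.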

[3] = tested on: downy bromegrass (Bromus tectorum); experiment: Test D preemergence; type: in vivo
In short: as §3

[4] = tested on: wild mustard (Sinapis arvensis); experiment: Test D preemergence; type: in vivo
In short: as §3

[5] = tested on: lambsquarters (Chenopodium album); experiment: Test D preemergence; type: in vivo
In short: as §3

[6] = tested on: blackgrass (Alopecurus myosuroides); experiment: Test D preemergence; type: in vivo
In short: as §3

[7] = tested on: wild radish (Raphanus raphanistrum); experiment: Test D preemergence; type: in vivo
In short: as §3

[8] = tested on: winter barley (Hordeum vulgare); experiment: Test D preemergence; type: in vivo
In short: as §3

[9] = tested on: speedwell (bird's-eye speedwell, Veronica persica); experiment: Test D preemergence; type: in vivo
In short: as §3

[10] = tested on: Italian ryegrass (Lolium multiflorum); experiment: Test D preemergence; type: in vivo
In short: as §3

[11] = tested on: wild oat (Avenafatua); experiment: Test D preemergence; type: in vivo, Avena fatua
Text: as §1, §2

Compound: Fc1cnc(Oc2c(Br)cccc2Oc2ncc(Cl)cn2)nc1 [Compound 22]
- Plant response rating, Oat, Wild ([1]; 16 g ai/ha): 10
- Plant response rating, Oat, Wild ([1]; 31 g ai/ha): 25
- Plant response rating, Oat, Wild ([1]; 62 g ai/ha): 35
- Plant response rating, Oat, Wild ([1]; 125 g ai/ha): 45
- Plant response rating, Canarygrass ([2]; 16 g ai/ha): 10
- Plant response rating, Canarygrass ([2]; 31 g ai/ha): 25
- Plant response rating, Canarygrass ([2]; 62 g ai/ha): 35
- Plant response rating, Canarygrass ([2]; 125 g ai/ha): 55
- Plant response rating, Bromegrass, Downy ([3]; 16 g ai/ha): 15
- Plant response rating, Bromegrass, Downy ([3]; 31 g ai/ha): 25
- Plant response rating, Bromegrass, Downy ([3]; 62 g ai/ha): 30
- Plant response rating, Bromegrass, Downy ([3]; 125 g ai/ha): 35
- Plant response rating, Mustard, Wild ([4]; 16 g ai/ha): 20
- Plant response rating, Mustard, Wild ([4]; 31 g ai/ha): 30
- Plant response rating, Mustard, Wild ([4]; 62 g ai/ha): 100
- Plant response rating, Mustard, Wild ([4]; 125 g ai/ha): 100
- Plant response rating, Lambsquarters ([5]; 16 g ai/ha): 20
- Plant response rating, Lambsquarters ([5]; 31 g ai/ha): 85
- Plant response rating, Lambsquarters ([5]; 62 g ai/ha): 100
- Plant response rating, Lambsquarters ([5]; 125 g ai/ha): 100
- Plant response rating, Blackgrass ([6]; 16 g ai/ha): 5
- Plant response rating, Blackgrass ([6]; 31 g ai/ha): 20
- Plant response rating, Blackgrass ([6]; 62 g ai/ha): 35
- Plant response rating, Blackgrass ([6]; 125 g ai/ha): 55
- Plant response rating, Radish, Wild ([7]; 16 g ai/ha): 45
- Plant response rating, Radish, Wild ([7]; 31 g ai/ha): 55
- Plant response rating, Radish, Wild ([7]; 62 g ai/ha): 70
- Plant response rating, Radish, Wild ([7]; 125 g ai/ha): 80
- Plant response rating, Barley, Winter ([8]; 16 g ai/ha): 0
- Plant response rating, Barley, Winter ([8]; 31 g ai/ha): 0
- Plant response rating, Barley, Winter ([8]; 62 g ai/ha): 5
- Plant response rating, Barley, Winter ([8]; 125 g ai/ha): 40
- Plant response rating, Speedwell ([9]; 16 g ai/ha): 85
- Plant response rating, Speedwell ([9]; 31 g ai/ha): 90
- Plant response rating, Speedwell ([9]; 62 g ai/ha): 100
- Plant response rating, Speedwell ([9]; 125 g ai/ha): 100
- Plant response rating, Ryegrass, Italian ([10]; 16 g ai/ha): 10
- Plant response rating, Ryegrass, Italian ([10]; 31 g ai/ha): 15
- Plant response rating, Ryegrass, Italian ([10]; 62 g ai/ha): 25
- Plant response rating, Ryegrass, Italian ([10]; 125 g ai/ha): 65
- Plant response rating, Oat, Wild ([11]; 16 g ai/ha): 5
- Plant response rating, Oat, Wild ([11]; 31 g ai/ha): 10
- Plant response rating, Oat, Wild ([11]; 62 g ai/ha): 20
- Plant response rating, Oat, Wild ([11]; 125 g ai/ha): 25

Compound: Fc1cnc(Oc2c(F)cccc2Oc2ncc(Cl)cn2)nc1 [Compound 23]
- Plant response rating, Oat, Wild ([1]; 16 g ai/ha): 15
- Plant response rating, Oat, Wild ([1]; 31 g ai/ha): 15
- Plant response rating, Oat, Wild ([1]; 62 g ai/ha): 20
- Plant response rating, Oat, Wild ([1]; 125 g ai/ha): 35
- Plant response rating, Canarygrass ([2]; 16 g ai/ha): 60
- Plant response rating, Canarygrass ([2]; 31 g ai/ha): 65
- Plant response rating, Canarygrass ([2]; 62 g ai/ha): 80
- Plant response rating, Canarygrass ([2]; 125 g ai/ha): 85
- Plant response rating, Bromegrass, Downy ([3]; 16 g ai/ha): 5
- Plant response rating, Bromegrass, Downy ([3]; 31 g ai/ha): 25
- Plant response rating, Bromegrass, Downy ([3]; 62 g ai/ha): 35
- Plant response rating, Bromegrass, Downy ([3]; 125 g ai/ha): 70
- Plant response rating, Mustard, Wild ([4]; 16 g ai/ha): 98
- Plant response rating, Mustard, Wild ([4]; 31 g ai/ha): 100
- Plant response rating, Mustard, Wild ([4]; 62 g ai/ha): 100
- Plant response rating, Mustard, Wild ([4]; 125 g ai/ha): 100
- Plant response rating, Lambsquarters ([5]; 16 g ai/ha): 25
- Plant response rating, Lambsquarters ([5]; 31 g ai/ha): 100
- Plant response rating, Lambsquarters ([5]; 62 g ai/ha): 100
- Plant response rating, Lambsquarters ([5]; 125 g ai/ha): 100
- Plant response rating, Blackgrass ([6]; 16 g ai/ha): 20
- Plant response rating, Blackgrass ([6]; 31 g ai/ha): 30
- Plant response rating, Blackgrass ([6]; 62 g ai/ha): 70
- Plant response rating, Blackgrass ([6]; 125 g ai/ha): 85
- Plant response rating, Radish, Wild ([7]; 16 g ai/ha): 25
- Plant response rating, Radish, Wild ([7]; 31 g ai/ha): 70
- Plant response rating, Radish, Wild ([7]; 62 g ai/ha): 90
- Plant response rating, Radish, Wild ([7]; 125 g ai/ha): 100
- Plant response rating, Barley, Winter ([8]; 16 g ai/ha): 0
- Plant response rating, Barley, Winter ([8]; 31 g ai/ha): 0
- Plant response rating, Barley, Winter ([8]; 62 g ai/ha): 30
- Plant response rating, Barley, Winter ([8]; 125 g ai/ha): 70
- Plant response rating, Speedwell ([9]; 16 g ai/ha): 100
- Plant response rating, Speedwell ([9]; 31 g ai/ha): 100
- Plant response rating, Speedwell ([9]; 62 g ai/ha): 100
- Plant response rating, Speedwell ([9]; 125 g ai/ha): 100
- Plant response rating, Ryegrass, Italian ([10]; 16 g ai/ha): 5
- Plant response rating, Ryegrass, Italian ([10]; 31 g ai/ha): 10
- Plant response rating, Ryegrass, Italian ([10]; 62 g ai/ha): 35
- Plant response rating, Ryegrass, Italian ([10]; 125 g ai/ha): 75
- Plant response rating, Oat, Wild ([11]; 16 g ai/ha): 5
- Plant response rating, Oat, Wild ([11]; 31 g ai/ha): 15
- Plant response rating, Oat, Wild ([11]; 62 g ai/ha): 70
- Plant response rating, Oat, Wild ([11]; 125 g ai/ha): 98

Compound: FC(F)(F)c1cnc(Oc2c(Br)cccc2Oc2ncc(Cl)cn2)nc1 [Compound 24]
- Plant response rating, Oat, Wild ([1]; 16 g ai/ha): 15
- Plant response rating, Oat, Wild ([1]; 31 g ai/ha): 20
- Plant response rating, Oat, Wild ([1]; 62 g ai/ha): 25
- Plant response rating, Oat, Wild ([1]; 125 g ai/ha): 35
- Plant response rating, Canarygrass ([2]; 16 g ai/ha): 25
- Plant response rating, Canarygrass ([2]; 31 g ai/ha): 30
- Plant response rating, Canarygrass ([2]; 62 g ai/ha): 35
- Plant response rating, Canarygrass ([2]; 125 g ai/ha): 45
- Plant response rating, Bromegrass, Downy ([3]; 16 g ai/ha): 20
- Plant response rating, Bromegrass, Downy ([3]; 31 g ai/ha): 35
- Plant response rating, Bromegrass, Downy ([3]; 62 g ai/ha): 35
- Plant response rating, Bromegrass, Downy ([3]; 125 g ai/ha): 45
- Plant response rating, Mustard, Wild ([4]; 16 g ai/ha): 15
- Plant response rating, Mustard, Wild ([4]; 31 g ai/ha): 35
- Plant response rating, Mustard, Wild ([4]; 62 g ai/ha): 55
- Plant response rating, Mustard, Wild ([4]; 125 g ai/ha): 100
- Plant response rating, Lambsquarters ([5]; 16 g ai/ha): 100
- Plant response rating, Lambsquarters ([5]; 31 g ai/ha): 100
- Plant response rating, Lambsquarters ([5]; 62 g ai/ha): 100
- Plant response rating, Lambsquarters ([5]; 125 g ai/ha): 100
- Plant response rating, Blackgrass ([6]; 16 g ai/ha): 15
- Plant response rating, Blackgrass ([6]; 31 g ai/ha): 25
- Plant response rating, Blackgrass ([6]; 62 g ai/ha): 35
- Plant response rating, Blackgrass ([6]; 125 g ai/ha): 55
- Plant response rating, Radish, Wild ([7]; 16 g ai/ha): 0
- Plant response rating, Radish, Wild ([7]; 31 g ai/ha): 20
- Plant response rating, Radish, Wild ([7]; 62 g ai/ha): 45
- Plant response rating, Radish, Wild ([7]; 125 g ai/ha): 70
- Plant response rating, Barley, Winter ([8]; 16 g ai/ha): 10
- Plant response rating, Barley, Winter ([8]; 31 g ai/ha): 15
- Plant response rating, Barley, Winter ([8]; 62 g ai/ha): 25
- Plant response rating, Barley, Winter ([8]; 125 g ai/ha): 70
- Plant response rating, Speedwell ([9]; 16 g ai/ha): 35
- Plant response rating, Speedwell ([9]; 31 g ai/ha): 100
- Plant response rating, Speedwell ([9]; 62 g ai/ha): 100
- Plant response rating, Speedwell ([9]; 125 g ai/ha): 100
- Plant response rating, Ryegrass, Italian ([10]; 16 g ai/ha): 10
- Plant response rating, Ryegrass, Italian ([10]; 31 g ai/ha): 15
- Plant response rating, Ryegrass, Italian ([10]; 62 g ai/ha): 25
- Plant response rating, Ryegrass, Italian ([10]; 125 g ai/ha): 65
- Plant response rating, Oat, Wild ([11]; 16 g ai/ha): 0
- Plant response rating, Oat, Wild ([11]; 31 g ai/ha): 15
- Plant response rating, Oat, Wild ([11]; 62 g ai/ha): 25
- Plant response rating, Oat, Wild ([11]; 125 g ai/ha): 75
